Experimental findings from patent US20240360153A1 (Regeneron Pharmaceuticals, Inc., priority 2023, published 2024) are described below.

For data set [1], the system named is S6K1 (Thr389) phosphorylation (mTORC1 activity) in wild-type (WT) 293T cells. In words: Inhibition of S6K1 (Thr389) phosphorylation in wild-type 293T cells (ELISA). The data set is classed as cell-based, human. As to conditions: for pIC50: Homo sapiens, HEK-293T, 2 h, wild-type 293T cells, 2 hours treatment; for extent of inhibition of S6K1 (Thr389) phosphorylation: with increasing concentrations. Summed up:
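WT 293T cells in DMEM + 10% FBS, grown 24 h to ~80% confluence, then treated 2 h at 37 °C in duplicate with compounds over an 8–11-point range from 0.001 pM to 10 μM. DMSO vehicle served as negative control. Phospho-S6K1 (Thr389) measured by ELISA.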

The subject of data set [2] is S6K1 (Thr389) phosphorylation (mTORC1 activity) in FKBP12 knock-out 293T cells. In words: Inhibition of S6K1 (Thr389) phosphorylation in FKBP12 knock-out 293T cells (ELISA). In kind it is cell-based, human. Particulars: for selectivity for FKBP12 compared with RAD001 (in words): wild-type versus FKBP12 knock-out cells. The procedure, abridged:
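CRISPR-generated FKBP12 knock-out HEK293T cells, alongside wild-type, were treated in duplicate for 2 hours at 37 °C with an 8–11-point dose range (0.001 pM–10 μM). Phospho-S6K1 Thr389 quantified by ELISA as an mTORC1 activity read-out, with DMSO as negative control.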
(In general: In an ELISA, binding on a coated surface is turned into a signal by an enzyme label.)

Data set [3] in a line: In vitro microsomal metabolic stability, CD-1 mouse liver microsomes. The data set is classed as in vitro ADME. As to conditions: for CLint scaled at 1 µM / microsomal CLint at 1 µM: CD-1, mouse, mouse liver microsomes, pH 7.2; for half-life at 1 µM: CD-1, pH 7.2, 0.5 mg/ml protein, NADPH; for half-life at 1 µM / Remaining (T = 60 min) / Remaining (T = NCF60 min): Mouse liver microsomes; for Remaining (T = 60 min): with NADPH; for Remaining (T = NCF60 min): without NADPH regenerating system; for Remaining (T = 60 min) / Remaining (T = NCF60 min): 60 min. Summed up:
(§1)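 Compounds at 1 μM incubated at 37° C with pooled CD-1 mouse or human liver microsomes (0.5 mg/mL protein) plus NADPH regenerating system in 50 mM potassium phosphate, pH 7.2, 3.3 mM MgCl2; sampled at 0–60 min, 60-min no-NADPH control. Parent loss by LC/MS/MS analyte/IS peak-area ratio, n=1.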

Data set [4] in a line: In vitro microsomal metabolic stability, human liver microsomes. In kind it is in vitro ADME. As to conditions: for Remaining (T = 60 min) / Remaining (T = NCF60 min) / half-life at 1 µM: Human liver microsomes; for Remaining (T = 60 min): with NADPH; for Remaining (T = NCF60 min): without NADPH regenerating system; for Remaining (T = 60 min) / Remaining (T = NCF60 min): 60 min; for half-life at 1 µM: 0.5 mg/ml protein, NADPH. The procedure, abridged: as §1
(Microsomes from liver hold many membrane-bound enzymes, among them those of drug oxidation.)

Data set [5] in a line: Pharmacokinetic studies in male CD-1 mice (plasma, IV and PO). As to conditions: male; for clearance / Vd / bioavailability: CD-1, plasma, mouse; for clearance / Vd / half-life: IV 2 mg/kg; for clearance: read-out: CI(mL/min/kg), compounds clearance following IV administration; for Vd: read-out: Vdss (L/kg), volume of distribution following IV administration; for bioavailability: PO 20 mg/kg vs IV 2 mg/kg; for half-life / Cmax / concentration at 8 h / concentration at 24 h: CD-1, mouse plasma; for half-life: read-out: IV T1/2 (converted); for Cmax / concentration at 8 h / concentration at 24 h: PO 20 mg/kg; for concentration at 8 h: read-out: Compound concentration at 8-hour, PO administration; for concentration at 24 h: read-out: Compound concentration at 24-hour, PO administration. The data set is classed as in vivo, mouse. The procedure: Animal experiments were carried out at Wuxi AppTec. Male 6-8 weeks old CDI mice were obtained from Hilltop Labs. Following arrival at Wuxi AppTec, mice were housed in animal rooms with environmental control (temperature: 20 to 26° C.; lighting: 12 hour light/dark cycle). Mice were fed with certified pellet diet (Certified Rodent Diet #5002 by LabDiet). Water was provided to the animals ad libitum. Mice were acclimated to the facility for at least 3 days prior to starting experiments.
Appropriate amount of test article formulated in 5% ethanol, 5% Tween-80 and 5% PEG-400, 85% water. Formulation was prepared on the day of dosing and dosed within 2 hours following preparation of formulations. Dose accuracy was determined by LC-MS/MS.
Dose formulation(s) were administered following facility SOPs. Dose volumes were determined individually prior to dosing based on animals' body weights.
About 40 μL of blood samples were collected via peripheral veins (e.g. saphenous veins) at each pre-defined time point. Blood samples were collected into tubes containing K2EDTA as anti-coagulant and kept on ice until centrifugation.
Blood samples were centrifuged at 4° C., 3000 g for 5 min within half an hour of collection. Plasma was transferred into polypropylene tubes or 96-well plates, promptly frozen on dry ice and stored at −70±10° C. until analysis by LC-MS/MS.
Test compound concentration in mouse plasma was determined with LC-MS/MS method using a calibration curve with at least 6 non-zero calibration standards.
The pharmacokinetics (PK) of the test article was analyzed using Phoenix WinNonlin software (version 8.3) and non-compartmental analysis model. Derived PK parameters include, but not limited to, C0, CLp, Vdss, Cmax, Tmax, T1/2, AUC(0-t), AUC(0-inf), MRT(0-t), MRT(0-inf) and % F (bioavailability).

The mark [6] stands for this setting: human, human liver microsomes, pH 7.2.

pIC50: −log10 of the molar value.

In general, pIC50 refers to the IC50 on a negative log10 scale, so that one unit is a factor of ten. A high value points to a low IC50. One may read the CLint scaled as the rate of metabolic loss divided by the concentration. Low readings indicate slow turnover, high ones rapid turnover. Usually microsomal CLint stands for a measure of how fast metabolising enzymes remove a compound, apart from limits set by blood flow. A higher microsomal CLint goes with faster metabolism. Usually bioavailability stands for the share of a dose that reaches the circulation, judged against a reference dose that is usually intravenous. High values mean good availability, low ones poor availability. By Cmax is commonly meant the highest concentration seen after dosing. By inhibition is commonly meant the percentage by which the read-out fell short of the control. Low values mean little suppression, high ones strong suppression.

In data set [1], `CO[C@@H]1CC(C[C@@H](C)[C@@H]2CC[C@H](C)/C=C(\C)[C@@H](O)[C@@H](OC)C(=O)[C@H](C)C[C@H](C)/C=C/C=C/C=C(\C)C(Nc3ccccc3)CC3CC[C@@H](C)[C@@](O)(O3)C(=O)C(=O)N3CCCC[C@H]3C(=O)O2)CC[C@H]1O` (stereo partly drawn) [Compound 26, (3S,6S,7E,9R,10R,12R,14S,15E,17E,19E,23S,26R,27R,34aS)-9,27-dihydroxy-3-((R)-1-((1S,3R,4R)-4-hydroxy-3-methoxycyclohexyl)propan-2-yl)-10-methoxy-6,8,12,14,20,26-hexamethyl-21-(phenylamino)-5,6,9,10,12,13,14,21,22,23,24,25,26,27,32,33,34,34a-octadecahydro-3H-23,27-epoxypyrido[2,1-c][1]oxa[4]azacyclohentriacontine-1,11,28,29(4H,31H)-tetraone] gave a pIC50 of 9.26. Further, in data set [1] (wild-type cells), the “extent of inhibition of S6K1 (Thr389) phosphorylation” value is on record as “complete inhibition”. The “IC50 of inhibition of S6K1 (Thr389)” value in data set [2] (FKBP12 knock-out 293T cells) is “not measurable/detectable”. For the same compound, the “inhibition of S6K1 (Thr389) phosphorylation in the absence of FKBP12 (in words)” value in data set [2] (FKBP12 knock-out cells) is “not inhibit S6K1 at any tested concentrations”. The “selectivity for FKBP12 compared with RAD001 (in words)” value in data set [2] is given as “more selective to FKBP12 compared with RAD001”. Moreover, in data set [3], the CLint scaled at 1 µM is 2.51 L/h/kg, the microsomal CLint at 1 µM stood at 10.6 µL/min/mg, the half-life at 1 µM was determined as 2.18 h and the “Remaining (T = 60 min)” value worked out at 69.80%. For the same compound, the “Remaining (T = NCF60 min)” value in data set [3] was 92.30%. In data set [4], the “Remaining (T = 60 min)” value was found to be 6.60% and the “Remaining (T = NCF60 min)” value is 92.80%. In data set [4] (setting [6]), the CLint scaled at 1 µM stood at 4.85 L/h/kg and the microsomal CLint at 1 µM was 89.9 µL/min/mg. In addition, in data set [4] (pH 7.2), the half-life at 1 µM came out at 0.257 h. Further, in data set [5], the clearance was 2.31 mL/min/kg, the Vd was 0.828 L/kg, the bioavailability was 28.5% and the half-life is 5.25 h. Moreover, in data set [5], the peak level (Cmax) was 4.12 µg/mL, the concentration at 8 h turned out to be 1.32 µg/mL and the concentration at 24 h was determined as 0.184 µg/mL.
Regarding `CO[C@@H]1C[C@H](C[C@@H](C)[C@@H]2CC[C@H](C)/C=C(\C)[C@@H](O)[C@@H](OC)C(=O)[C@H](C)C[C@H](C)/C=C/C=C/C=C(\C)C(Nc3cnon3)C[C@@H]3CC[C@@H](C)[C@@](O)(O3)C(=O)C(=O)N3CCCCC3C(=O)O2)CC[C@H]1O` (stereo partly drawn) [Compound 45, (3S,6S,7E,9R,10R,12R,14S,15E,17E,19E,23S,26R,27R,34aS)-21-((1,2,5-oxadiazol-3-yl)amino)-9,27-dihydroxy-3-((R)-1-((1S,3R,4R)-4-hydroxy-3-methoxycyclohexyl)propan-2-yl)-10-methoxy-6,8,12,14,20,26-hexamethyl-5,6,9,10,12,13,14,21,22,23,24,25,26,27,32,33,34,34a-octadecahydro-3H-23,27-epoxypyrido[2,1-c][1]oxa[4]azacyclohentriacontine-1,11,28,29(4H,31H)-tetraone], the pIC50 in data set [1] was 8.08. For the same compound, in data set [1] (wild-type cells), the “fold lower potency compared with RAD001 (by IC50)” value is on record as ~18 fold and the “extent of inhibition of S6K1 (Thr389) phosphorylation” value is “completely inhibit”. Also, the “inhibition of S6K1 (Thr389) phosphorylation in the absence of FKBP12 (in words)” value in data set [2] (FKBP12 knock-out cells) was “much less inhibition of S6K1 phosphorylation”. In addition, the “fold less potent compared with RAD001” value in data set [2] (FKBP12 knock-out cells, at similar level of inhibition) is ~100 fold. Further, the inhibition at 10 µM in data set [2] (Homo sapiens, HEK-293T, FKBP12 knock-out cells, 10 μM (highest tested concentration)) was ~25%. In data set [2], the “selectivity for FKBP12 compared with RAD001 (in words)” value was “relatively more selective for FKBP12 compared with RAD001”. Also, in data set [3], the CLint scaled at 1 µM came out at 3.89 L/h/kg, the microsomal CLint at 1 µM was found to be 16.4 µL/min/mg, the half-life at 1 µM came to 1.41 h and the “Remaining (T = 60 min)” value came out at 64.30%. In addition, the “Remaining (T = NCF60 min)” value in data set [3] is listed as 81.40%. Also, in data set [4], the “Remaining (T = 60 min)” value was 0.00% and the “Remaining (T = NCF60 min)” value came out at 71.30%. In data set [4] (setting [6]), this compound had an intrinsic clearance (microsomal CLint) at 1 µM of 194 µL/min/mg. For the same compound, the half-life at 1 µM in data set [4] (pH 7.2) amounted to 0.119 h. Also, in data set [5], the clearance worked out at 1.13 mL/min/kg, the Vd was 0.475 L/kg, the bioavailability is 17% and the half-life was 5.63 h. In addition, in data set [5], the peak level (Cmax) was 9.18 µg/mL, the concentration at 8 h was determined as 1.52 µg/mL and the concentration at 24 h amounted to 0.239 µg/mL.
